Reference: patent US4918173A, “2',6'-Dideoxy derivatives of anthracycline glycosides” (Laboratories Hoechst S.A., priority 1985, dated 1990)
≈ marks a conversion by molar mass, not a printed value. Like-named read-outs stand apart in the source and are kept apart here.

Legend:
[1] = system: L 1210 leukemia cells; test: Effect on L 1210 leukemia cells: colony formation in agarose, method of Hamburger and Salmon modified; assay type: cell-based; conditions: Mus musculus
Method: The cells are incubated for 1 hour at 37° C. in the presence of various concentrations of the tested substance. The cells are then washed twice with Mc Coy 5 A and placed on agarose plates according to the method of Hamburger and Salmon. Furthermore, the test is carried out in parallel with continuous incubation with various concentrations of the substance under study by introducing the substance into the agarose layer before the cells are left to incubate. The dishes are placed in the oven at 37° C. under an atmosphere of 5% CO2 and 20% O2, and a relative humidity of 95% for 5 to 7 days. After this time the colonies with a diameter greater than 60 mcm are counted with the aid of a reversed microscope. […] Two experiments are carried out, one with 1 hour's exposure, the other with continuous exposure.

[2] = versus the parent compounds; F. Arcamone et al. 1976; cited from earlier work
[3] = L1210, L 1210 leukemia cells, 1 h exposure at 37° C., read-out: IC 50, 1 h exposure
[4] = L1210, L 1210 leukemia cells, continuous exposure (substance in agarose layer), 5 to 7 days, read-out: IC 50, Continuous exposure

Row | SMILES | IC50 [1, 3] [µg/mL] | IC50 [1, 4] [µg/mL] | further results
1 | COc1cccc2c1C(=O)c1c(O)c3c(c(O)c1C2=O)C[C@@](O)(C(=O)CO)C[C@@H]3O[C@H]1C[C@H](N)[C@H](O)[C@H](C)O1 [adriamycin] |  |  | activity relative to the parent compounds [2]: more active; toxicity relative to the parent compounds [2]: less toxic
2 | C[C@@H]1O[C@@H](O[C@H]2C[C@]3(COC(C)(C)O3)Cc3c(O)c4c(c(O)c32)C(=O)c2ccccc2C4=O)C[C@H](O)[C@H]1O | > 1 | > 1 | 
3 | CC(=O)[C@]1(O)Cc2c(O)c3c(c(O)c2[C@@H](O[C@H]2C[C@H](N)[C@H](O)[C@H](C)O2)C1)C(=O)c1ccccc1C3=O [4-demethoxydaunorubicin] |  |  | activity relative to the parent compounds [2]: more active; toxicity relative to the parent compounds [2]: less toxic
4 | COc1cccc2c1C(=O)c1c(O)c3c(c(O)c1C2=O)C[C@@](O)(C(=O)CO)C[C@@H]3O[C@H]1C[C@H](N)[C@H](O)[C@H](C)O1 [DOXORUBICIN, reference compound] |  |  | IC50 ([1]; L1210, 1 h, read-out: IC 50, 1 h exposure): 0.02 µg/mL (≈ 0.0368 µM); IC50 ([1]; L1210, read-out: IC 50, Continuous exposure): 0.04 µg/mL (≈ 0.0736 µM)

More lines, main results first:

Row | IC50 [1, 3] [µg/mL] | IC50 [1, 4] [µg/mL] | SMILES | further results
5 | 0.025 (≈ 0.0514 µM) | 0.063 (≈ 0.13 µM) | C[C@@H]1O[C@@H](O[C@H]2C[C@](O)(CO)Cc3c(O)c4c(c(O)c32)C(=O)c2ccccc2C4=O)C[C@H](O)[C@H]1O [XXV, 1-O-(2',6'-dideoxy-α-L-arabinohexopyranosyl)-1,2,3,4,6,11-hexahydro-1S,3S,5,12-tetrahydroxy-3-hydroxymethylnaphthacene-6,11-dione] | 
6 | 2.8 (≈ 4.59 µM) | > 10 | CC(=O)O[C@H]1[C@H](C)O[C@@H](O[C@H]2C[C@]3(COC(C)(C)O3)Cc3c(O)c4c(c(O)c32)C(=O)c2ccccc2C4=O)C[C@@H]1OC(C)=O [XXIII, 1-O-(3',4'-Di-O-acetyl-2',6'-dideoxy-α-L-arabinohexopyranosyl)-1,2,3,4,6,11-hexahydro-1S,3S,5,12-tetrahydroxy-3-hydroxymethyl-3,13-O-isopropylidenenaphthacene-6,11-dione] | 
7 | 0.021 (≈ 0.0368 µM) | 3.6 (≈ 6.31 µM) | CC(=O)O[C@H]1[C@H](C)O[C@@H](O[C@H]2C[C@](O)(CO)Cc3c(O)c4c(c(O)c32)C(=O)c2ccccc2C4=O)C[C@@H]1OC(C)=O [XXIV, 1-O-(3',4'-Di-O-acetyl-2',6'-dideoxy-α-L-arabinohexopyranosyl)-1,2,3,4,6,11-hexahydro-1S,3S,5,12-tetrahydroxy-3-hydroxymethylnaphthacene-6,11-dione] | 
